# Source: US20170232083A1, “METHODS OF DIAGNOSIS AND TREATMENT OF CELIAC DISEASE IN CHILDREN” (priority 2014, published 2017)
# Tested on: PBMC (polyclonal gluten-specific T cells) of paediatric and adult CD patients
# Assay: IFN-γ ELISpot of PBMC after 3 day oral wheat challenge (SFU, % of maximal peptide response, dominance scores, EC50; Examples 5-6)
# Assay type: cell-based, human
# Settings: for IFN-γ ELISpot response: after oral wheat challenge; for Cross-reactive T cell response: following wheat challenge
# [1] = patient G, 11-17 yrs, cut-off 10 SFU
# [2] = patient H, 11-17 yrs, cut-off 10 SFU
# [3] = patient ID not given, 11-17 yrs, cut-off 10 SFU
# [4] = patient P, 11-17 yrs, cut-off 21.6 SFU
# [5] = patient Q, 11-17 yrs, cut-off 10 SFU
# [6] = patient U, H, 11-17 yrs, cut-off 10 SFU
# [7] = patient V, 6-10 yrs, cut-off 10 SFU
# [8] = patient Y, 6-10 yrs, cut-off 10 SFU
# [9] = patient eleven, 6-10 yrs, cut-off 10 SFU
# [10] = patient four, 3-5yrs, cut-off 10 SFU
# [11] = patient seven, 6-10 yrs, cut-off 10.5 SFU
# [12] = patient ten, 3-5yrs, cut-off 10 SFU
# [13] = patient three, 6-10 yrs, cut-off 10.5 SFU
# [14] = patient two, 3-5yrs, cut-off 10 SFU
# [15] = subject I (3-5yrs/6-10yrs part)
# [16] = subject J (3-5yrs/6-10yrs part)
# [17] = subject K (3-5yrs/6-10yrs part)
# [18] = subject V (3-5yrs/6-10yrs part)
# [19] = subject W (3-5yrs/6-10yrs part)
# [20] = subject Y (3-5yrs/6-10yrs part)
# [21] = subject five (3-5yrs/6-10yrs part)
# [22] = subject seven (3-5yrs/6-10yrs part)
# [23] = subject six (3-5yrs/6-10yrs part)
# [24] = subject ten (3-5yrs/6-10yrs part)
# [25] = subject two (3-5yrs/6-10yrs part)
sequence,measurement,setting,value
PQQPQQSFPQQQQPA,IFN-γ ELISpot response,[1],11 SFU
same,Significant response as percentage of maximal peptide SFU,"patient G, max peptide 15 SFU",+ (>70% = +)
same,IFN-γ ELISpot response,[2],1 SFU
same,IFN-γ ELISpot response,[3],3 SFU
same,Significant response as percentage of maximal peptide SFU,"patient K, max peptide 53 SFU",′′ (21-40% = ′′)
same,IFN-γ ELISpot response,[4],4 SFU
same,IFN-γ ELISpot response,[5],1 SFU
same,IFN-γ ELISpot response,[6],2 SFU
same,IFN-γ ELISpot response,[7],10 SFU
same,Significant response as percentage of maximal peptide SFU,"patient V, max peptide 35 SFU",′′ (21-40% = ′′)
same,IFN-γ ELISpot response,[8],3 SFU
same,IFN-γ ELISpot response,[9],0 SFU
same,IFN-γ ELISpot response,[10],0 SFU
same,IFN-γ ELISpot response,[11],10 SFU
same,IFN-γ ELISpot response,[12],7 SFU
same,IFN-γ ELISpot response,[13],1 SFU
same,IFN-γ ELISpot response,[14],0 SFU
QEFPQPEQPFPQQ,Cross-reactive T cell response,"subject A, 11-17yrs",4 SFU
same,Significant response as a percentage of maximal peptide SFU,"subject D, 11-17yrs",′′′ (41-70% = ′′′)
same,Cross-reactive T cell response,"subject D, 11-17yrs",15 SFU
same,Significant response as a percentage of maximal peptide SFU,"subject E, 11-17yrs",′ (11-20% = ′)
same,Cross-reactive T cell response,"subject E, 11-17yrs",30 SFU
same,Significant response as a percentage of maximal peptide SFU,"subject F, 11-17yrs",′′ (21-40% = ′′)
same,Cross-reactive T cell response,"subject F, 11-17yrs",38 SFU
same,Cross-reactive T cell response,"subject G, 11-17yrs",4 SFU
same,Cross-reactive T cell response,subject H,1 SFU
same,Cross-reactive T cell response,[15],8 SFU
same,Significant response as a percentage of maximal peptide SFU,subject J,′′′ (41-70% = ′′′)
same,Cross-reactive T cell response,[16],93 SFU
same,Significant response as a percentage of maximal peptide SFU,subject K,′′ (21-40% = ′′)
same,Cross-reactive T cell response,[17],21 SFU
same,Cross-reactive T cell response,"subject P, 11-17yrs",7 SFU
same,Significant response as a percentage of maximal peptide SFU,"subject Q, 11-17yrs",′′′ (41-70% = ′′′)
same,Cross-reactive T cell response,"subject Q, 11-17yrs",44 SFU
same,Significant response as a percentage of maximal peptide SFU,"subject T, 11-17yrs",+ (>70% = +)
same,Cross-reactive T cell response,"subject T, 11-17yrs",67 SFU
same,Significant response as a percentage of maximal peptide SFU,"subject U, 11-17yrs",′′ (21-40% = ′′)
same,Cross-reactive T cell response,"subject U, 11-17yrs",23 SFU
same,Significant response as a percentage of maximal peptide SFU,subject V,′′ (21-40% = ′′)
same,Cross-reactive T cell response,[18],11 SFU
same,Cross-reactive T cell response,[19],3 SFU
same,Cross-reactive T cell response,[20],2 SFU
same,Significant response as a percentage of maximal peptide SFU,subject five,+ (>70% = +)
same,Cross-reactive T cell response,[21],36 SFU
same,Cross-reactive T cell response,"subject nine, 11-17yrs",1 SFU
same,Cross-reactive T cell response,[22],2 SFU
same,Cross-reactive T cell response,[23],6 SFU
same,Cross-reactive T cell response,[24],8 SFU
same,Significant response as a percentage of maximal peptide SFU,subject two,′′′ (41-70% = ′′′)
same,Cross-reactive T cell response,[25],30 SFU
QFIQPEQPFPQQ,IFN-γ ELISpot response,"patient A, 11-17 yrs, cut-off 10 SFU",0 SFU
same,IFN-γ ELISpot response,"patient E, H, 11-17 yrs, cut-off 10 SFU",31 SFU
same,Significant response as percentage of maximal peptide SFU,"patient E, max peptide 224 SFU",′ (11-20% = ′)
same,IFN-γ ELISpot response,"patient F, 11-17 yrs, cut-off 10 SFU",28 SFU
same,Significant response as percentage of maximal peptide SFU,"patient F, max peptide 178 SFU",′ (11-20% = ′)
same,IFN-γ ELISpot response,[1],2 SFU
same,IFN-γ ELISpot response,"patient H (HLA-DQ2.5 homozygote), 3-5yrs, cut-off 10 SFU",8 SFU
same,IFN-γ ELISpot response,[2],3 SFU
same,IFN-γ ELISpot response,[3],21 SFU
same,Significant response as percentage of maximal peptide SFU,"patient ID not given, max peptide 95 SFU",′′ (21-40% = ′′)
same,Significant response as percentage of maximal peptide SFU,"patient II, max peptide 15 SFU",+ (>70% = +)
same,Significant response as percentage of maximal peptide SFU,"patient J, max peptide 196 SFU",′ (11-20% = ′)
same,Significant response as percentage of maximal peptide SFU,"patient K, max peptide 53 SFU",′′ (21-40% = ′′)
same,IFN-γ ELISpot response,"patient N, 3-5yrs, cut-off 10 SFU",6 SFU
same,IFN-γ ELISpot response,[4],8 SFU
same,IFN-γ ELISpot response,[5],25 SFU
same,Significant response as percentage of maximal peptide SFU,"patient Q, max peptide 97 SFU",′′ (21-40% = ′′)
same,IFN-γ ELISpot response,[6],13 SFU
same,Significant response as percentage of maximal peptide SFU,"patient U, max peptide 81 SFU",′ (11-20% = ′)
same,IFN-γ ELISpot response,[7],19 SFU
same,Significant response as percentage of maximal peptide SFU,"patient V, max peptide 35 SFU",′′′ (41-70% = ′′′)
same,IFN-γ ELISpot response,[8],3 SFU
same,IFN-γ ELISpot response,[9],0 SFU
same,IFN-γ ELISpot response,[10],6 SFU
same,IFN-γ ELISpot response,[11],8 SFU
same,IFN-γ ELISpot response,[12],6 SFU
same,IFN-γ ELISpot response,[13],30 SFU
same,IFN-γ ELISpot response,"patient twelve, 11-17 yrs, cut-off 10 SFU",6 SFU
same,IFN-γ ELISpot response,[14],7 SFU
QLFPLPEQPFPQP,Cross-reactive T cell response,"subject A, 11-17yrs",2 SFU
same,Cross-reactive T cell response,"subject D, 11-17yrs",2 SFU
same,Cross-reactive T cell response,"subject E, 11-17yrs",2 SFU
same,Cross-reactive T cell response,"subject F, 11-17yrs",2 SFU
same,Cross-reactive T cell response,"subject G, 11-17yrs",0 SFU
same,Cross-reactive T cell response,subject H,0 SFU
same,Cross-reactive T cell response,[15],1 SFU
same,Significant response as a percentage of maximal peptide SFU,subject J,′ (11-20% = ′)
same,Cross-reactive T cell response,[16],26 SFU
same,Cross-reactive T cell response,[17],5 SFU
same,Cross-reactive T cell response,"subject P, 11-17yrs",11 SFU
same,Significant response as a percentage of maximal peptide SFU,"subject Q, 11-17yrs",′ (11-20% = ′)
same,Cross-reactive T cell response,"subject Q, 11-17yrs",13 SFU
same,Significant response as a percentage of maximal peptide SFU,"subject T, 11-17yrs",′ (11-20% = ′)
same,Cross-reactive T cell response,"subject T, 11-17yrs",13 SFU
same,Cross-reactive T cell response,"subject U, 11-17yrs",9 SFU
same,Cross-reactive T cell response,[18],4 SFU
same,Cross-reactive T cell response,[19],4 SFU
same,Cross-reactive T cell response,[20],2 SFU
same,Cross-reactive T cell response,[21],7 SFU
same,Cross-reactive T cell response,"subject nine, 11-17yrs",1 SFU
same,Cross-reactive T cell response,[22],1 SFU
same,Cross-reactive T cell response,[23],0 SFU
same,Significant response as a percentage of maximal peptide SFU,subject ten,+ (>70% = +)
same,Cross-reactive T cell response,[24],14 SFU
same,Cross-reactive T cell response,[25],3 SFU
QPEQPFPLQPEQPVP,Cross-reactive T cell response,"subject A, 11-17yrs",1 SFU
same,Cross-reactive T cell response,"subject D, 11-17yrs",0 SFU
same,Cross-reactive T cell response,"subject E, 11-17yrs",9 SFU
same,Significant response as a percentage of maximal peptide SFU,"subject F, 11-17yrs",′ (11-20% = ′)
same,Cross-reactive T cell response,"subject F, 11-17yrs",27 SFU
same,Cross-reactive T cell response,"subject G, 11-17yrs",2 SFU
same,Cross-reactive T cell response,subject H,3 SFU
same,Cross-reactive T cell response,[15],1 SFU
same,Significant response as a percentage of maximal peptide SFU,subject J,(6-10% - ^)
same,Cross-reactive T cell response,[16],11 SFU
same,Cross-reactive T cell response,[17],8 SFU
same,Cross-reactive T cell response,"subject P, 11-17yrs",12 SFU
same,Significant response as a percentage of maximal peptide SFU,"subject Q, 11-17yrs",′′ (21-40% = ′′)
same,Cross-reactive T cell response,"subject Q, 11-17yrs",20 SFU
same,Significant response as a percentage of maximal peptide SFU,"subject T, 11-17yrs",′ (11-20% = ′)
same,Cross-reactive T cell response,"subject T, 11-17yrs",16 SFU
same,Cross-reactive T cell response,"subject U, 11-17yrs",9 SFU
same,Cross-reactive T cell response,[18],4 SFU
same,Cross-reactive T cell response,[19],4 SFU
same,Cross-reactive T cell response,[20],1 SFU
same,Cross-reactive T cell response,[21],3 SFU
same,Cross-reactive T cell response,"subject nine, 11-17yrs",0 SFU
same,Significant response as a percentage of maximal peptide SFU,subject seven,+ (>70% = +)
same,Cross-reactive T cell response,[22],19 SFU
same,Cross-reactive T cell response,[23],2 SFU
same,Cross-reactive T cell response,[24],8 SFU
same,Cross-reactive T cell response,[25],6 SFU
